Assay results: ChEMBL document CHEMBL3991943, “Pharmaceutical formulations comprising salts of a protein kinase inhibitor and methods of using same” (2013)

Tests used:
Rattus norvegicus [1] = experiment: Chronic toxicity in female rat assessed as decrease in food consumption at 60 to 100 mg/kg/day, po administered for 28 days; format: organism-based; details: in vivo, 672 h
Rattus norvegicus [2] = experiment: Chronic toxicity in male rat assessed as decrease in food consumption at 200 mg/kg/day, po administered for 28 days measured after cessation of dosing; format: organism-based; details: in vivo, 672 h
[3] = Tmax in rat at 25 mg/kg administered via oral gavage; format: ADME, organism-based; details: in vivo
[4] = Chronic toxicity in po dosed female rat assessed as no observable adverse effect level administered daily for 28 days; format: organism-based; details: in vivo
A549 [5] = experiment: Suppression of carboplatin induced Rad51 expression in human A549 cells at 3.82 uM after 24 hrs by probing blot analysis; format: functional; details: A549, 24 h
Rattus norvegicus [6] = experiment: Chronic toxicity in male rat assessed as sporadic alterations in organ weight at 200 mg/kg/day, po administered for 28 days; format: organism-based; details: in vivo, 672 h
Canis familiaris [7] = experiment: Chronic toxicity in dog assessed as mortality up to 300 mg/kg/day, po administered for 28 days; format: organism-based, Canis lupus familiaris; details: in vivo, 672 h
Canis familiaris [8] = experiment: Chronic toxicity in female dog assessed as increase in emesis at 300 mg/kg/day, po administered for 28 days; format: organism-based, Canis lupus familiaris; details: in vivo, 672 h
Canis familiaris [9] = experiment: Chronic toxicity in male dog assessed as increase in soft feces/diarrhea at 100 to 300 mg/kg/day, po administered for 28 days; format: organism-based, Canis lupus familiaris; details: in vivo, 672 h
Canis familiaris [10] = experiment: Chronic toxicity in dog assessed as effect on food consumption up to 300 mg/kg/day, po administered for 28 days measured during compound dosing; format: organism-based, Canis lupus familiaris; details: in vivo, 672 h
Canis familiaris [11] = experiment: Chronic toxicity in male dog assessed as discolored feces at 30 to 300 mg/kg/day, po administered for 28 days; format: organism-based, Canis lupus familiaris; details: in vivo, 672 h
Canis familiaris [12] = experiment: Chronic toxicity in dog assessed as effect on serum troponin 1 levels up to 300 mg/kg/day, po administered for 28 days measured during compound dosing; format: organism-based, Canis lupus familiaris; details: in vivo, 672 h
Rattus norvegicus [13] = experiment: Acute toxicity in Sprague-Dawley rat assessed as clinical abnormalities at 100 to 2000 mg/kg administered as single dose via oral gavage measured 1 to 72 hrs post dose; format: organism-based; details: in vivo
Rattus norvegicus [14] = experiment: Chronic toxicity in female rat assessed as weight gain at 6 to 100 mg/kg/day, po administered for 28 days measured during compound dosing; format: organism-based; details: in vivo, 672 h
Rattus norvegicus [15] = experiment: Chronic toxicity in female rat assessed as sporadic occurrence of hair loss at 6 to 100 mg/kg/day, po administered for 28 days; format: organism-based; details: in vivo, 672 h
Canis familiaris [16] = experiment: Chronic toxicity in dog assessed as urinalysis parameters up to 300 mg/kg/day, po administered for 28 days measured during compound dosing; format: organism-based, Canis lupus familiaris; details: in vivo, 672 h
Rattus norvegicus [17] = experiment: Chronic toxicity in male rat assessed as decrease in glucose levels at 200 mg/kg/day, po administered for 28 days; format: organism-based; details: in vivo, 672 h
Canis familiaris [18] = experiment: Chronic toxicity in dog assessed as histopathological alterations in cardiac tissues up to 300 mg/kg/day, po administered for 28 days; format: organism-based, Canis lupus familiaris; details: in vivo, 672 h
Rattus norvegicus [19] = experiment: Chronic toxicity in male rat assessed as decrease in food consumption at 200 mg/kg/day, po administered for 28 days; format: organism-based; details: in vivo, 672 h
Canis familiaris [20] = experiment: Chronic toxicity in dog assessed as ophthalmic lesions up to 300 mg/kg/day, po administered for 28 days; format: organism-based, Canis lupus familiaris; details: in vivo, 672 h
Canis familiaris [21] = experiment: Chronic toxicity in dog assessed as electrocardiogram changes up to 300 mg/kg/day, po administered for 28 days; format: organism-based, Canis lupus familiaris; details: in vivo, 672 h
Rattus norvegicus [22] = experiment: Chronic toxicity in male rat assessed as effect on organs at 200 mg/kg/day, po administered for 28 days; format: organism-based; details: in vivo, 672 h
[23] = Tmax in male rat at 5 mg/kg, iv; format: ADME, organism-based; details: in vivo
Rattus norvegicus [24] = experiment: Chronic toxicity in po dosed male rat assessed as severely toxic dose administered daily for 28 days; format: organism-based; details: in vivo, 672 h
Mus musculus = experiment: Toxicity in nude mouse xenografted with human OVCAR3 cells assessed as mortality at 100 to 200 mg/kg, po qd measured on day 5,6,7,20,27 during compound dosing in presence of cisplatin dosed every 7 days for 28 days; format: organism-based; details: in vivo
Canis familiaris [25] = experiment: Chronic toxicity in dog assessed as hematological changes up to 300 mg/kg/day, po administered for 28 days measured during compound dosing; format: organism-based, Canis lupus familiaris; details: in vivo, 672 h
Canis familiaris [26] = experiment: Acute toxicity in dog assessed as mortality at 30 to 2000 mg/kg, po administered as single dose capsule measured over 24 hrs; format: organism-based, Canis lupus familiaris; details: in vivo
Rattus norvegicus [27] = experiment: Chronic toxicity in male rat assessed as soft feces at 20 to 200 mg/kg/day, po administered for 28 days; format: organism-based; details: in vivo, 672 h
Rattus norvegicus [28] = experiment: Chronic toxicity in female rat assessed as sporadic alterations in organ weight at 60 to 100 mg/kg/day, po administered for 28 days; format: organism-based; details: in vivo, 672 h
OVCAR-3 [29] = experiment: Induction of DNA damage in human OVCAR3 cells assessed as increase in gamma-H2AX levels at 10 uM in presence of topotecan; format: functional
Rattus norvegicus [30] = experiment: Chronic toxicity in female rat assessed as hematological changes at 60 to 100 mg/kg/day, po administered for 28 days; format: organism-based; details: in vivo, 672 h
Canis familiaris [31] = experiment: Chronic toxicity in female dog assessed as soft feces/diarrhea at 100 to 300 mg/kg/day, po administered for 28 days; format: organism-based, Canis lupus familiaris; details: in vivo, 672 h
Canis familiaris [32] = experiment: Acute toxicity in dog at 30 to 2000 mg/kg, po administered as single dose capsule measured over 24 hrs; format: organism-based, Canis lupus familiaris; details: in vivo
Rattus norvegicus [33] = experiment: Chronic toxicity in male rat assessed as ophthalmologic changes at 200 mg/kg/day, po administered for 28 days; format: organism-based; details: in vivo, 672 h
[34] = Solubility of the compound in glycerol; format: physicochemical
OVCAR-3 [35] = experiment: Antitumor activity against human OVCAR3 cells xenografted in athymic nude mouse assessed as tumor growth at 100 to 200 mg/kg, po qd administered for 3 days in presence of 5 mg/kg cisplatin dosed every 7 days for 28 days (reference value: 78.04 mm3/day); format: functional
Rattus norvegicus [36] = experiment: Chronic toxicity in male rat assessed as hunched posture at 20 to 200 mg/kg/day, po administered for 28 days; format: organism-based; details: in vivo, 672 h
Rattus norvegicus [37] = experiment: Chronic toxicity in male rat assessed as decrease in triglyceride levels at 200 mg/kg/day, po administered for 28 days; format: organism-based; details: in vivo, 672 h
[38] = Cmax in female rat at 5 mg/kg, iv at 5 mins; format: ADME, organism-based; set-up: dose 5 mg/kg, route intravenous; details: in vivo
Rattus norvegicus [39] = experiment: Chronic toxicity in female rat assessed as hunched posture at 6 to 100 mg/kg/day, po administered for 28 days; format: organism-based; details: in vivo, 672 h
Canis familiaris [40] = experiment: Chronic toxicity in male dog assessed as mucoid feces at 30 to 300 mg/kg/day, po administered for 28 days; format: organism-based, Canis lupus familiaris; details: in vivo, 672 h
Rattus norvegicus [41] = experiment: Chronic toxicity in female rat assessed as effect on organs at 60 to 100 mg/kg/day, po administered for 28 days; format: organism-based; details: in vivo, 672 h
A549 [42] = experiment: Suppression of carboplatin induced Rad51 expression in human A549 cells at 0.71 uM after 24 hrs by probing blot analysis; format: functional; details: A549, 24 h

Cl.S=C(NCc1ccc2c(c1)OCO2)N1CCN(c2ncnc3c2oc2ccccc23)CC1 [AMUVATINIB HYDROCHLORIDE]
Activity (Rattus norvegicus [1]): Toxic | Activity (Rattus norvegicus [2]): Non-Toxic | Tmax [3]: 30 to 720 min | NOAEL at 672 h [4]: 20 mg/kg/day | inhibition at 3.82 µM (A549 [5]): 42% | Activity (Rattus norvegicus [6]): Toxic | Activity (Canis familiaris [7]): Non-Toxic | Activity (Canis familiaris [8]): Toxic | Activity (Canis familiaris [9]): Toxic | Activity (Canis familiaris [10]): Non-Toxic | Activity (Canis familiaris [11]): Toxic | Activity (Canis familiaris [12]): Non-Toxic | Activity (Rattus norvegicus [13]): Non-Toxic | Activity (Rattus norvegicus [14]): Toxic | Activity (Rattus norvegicus [15]): Toxic | Activity (Canis familiaris [16]): Non-Toxic | Activity (Rattus norvegicus [17]): Toxic | Activity (Canis familiaris [18]): Non-Toxic | Activity (Rattus norvegicus [19]): Toxic | Activity (Canis familiaris [20]): Non-Toxic | Activity (Canis familiaris [21]): Non-Toxic | Activity (Rattus norvegicus [22]): Non-Toxic | Tmax [23]: 5 min | Activity (Rattus norvegicus [24]): 200 mg/kg/day | Activity (Mus musculus): Toxic | Activity (Canis familiaris [25]): Non-Toxic | Activity (Canis familiaris [26]): Non-Toxic | Activity (Rattus norvegicus [27]): Toxic | Activity (Rattus norvegicus [28]): Toxic | Activity (OVCAR-3 [29]): 113% | Activity (Rattus norvegicus [30]): Non-Toxic | Activity (Canis familiaris [31]): Toxic | Activity (Canis familiaris [32]): Non-Toxic | Activity (Rattus norvegicus [33]): Non-Toxic | solubility [34]: 4000 µg/mL | Activity (OVCAR-3 [35]): 10.22 mm3/day | Activity (Rattus norvegicus [36]): Toxic | Activity (Rattus norvegicus [37]): Toxic | Cmax [38]: 371 ng/mL | Activity (Rattus norvegicus [39]): Toxic | Activity (Canis familiaris [40]): Toxic | Activity (Rattus norvegicus [41]): Non-Toxic | inhibition at 0.71 µM (A549 [42]): 26%
